Test [1] deals with BirA*-FLAG-GATAD1 variants in Flp-In-293 cells. In words: BioID proximity labelling of full-length GATAD1 variants (SILAC). Conditions: GATAD1 WT vs S102P, significant proteins only; for Log2_Ratio.H.L.normalized.WT_S102P_forward: forward experiment (label swap performed, sign inverted against the H/L ratio); for Log2_Ratio.H.L.normalized.WT_S102P_forward / Log2_Ratio.H.L.normalized.WT_S102P_reverse: log2 of normalized H/L ratio; for Ratio.H.L.normalized.WT_S102P_forward: forward experiment; for Log2_Ratio.H.L.normalized.WT_S102P_reverse / Ratio.H.L.normalized.WT_S102P_reverse: reverse experiment. In kind it is cell-based, human. The source says: The GATAD1 gene variants were ordered in a pTwist ENTR Kozak vector from Twist Bioscience. The genes were then transferred to a pDEST_pcDNA5_BirA_FLAG_Nterm vector[97] using the Gateway Clonase II system (Thermo Fisher Scientific). The resulting vectors, pEXPR_GATAD1-WT_N-term_BirA_FLAG, pEXPR_GATAD1-S102P_N-term_BirA_FLAG, pEXPR_GATAD1-S102D_N-term_BirA_FLAG, and pEXPR_GATAD1-S102A_N-term_BirA_FLAG, were used to generate tetracycline-inducible stable Flp-In^TM-293 T-REx cells. A 6-well plate was co-transfected with 0.5 µg of the pEXPR plasmid and 1 µg of the pOG44 Flp-recombinase expression vector (Thermo Fisher Scientific) using 4.5 µg of PEI (Polysciences) as a transfection reagent. The following day, the cells were trypsinized and transferred to a 10 cm dish containing DMEM supplemented with 10% FCS and 200 µg/ml hygromycin B (Invivogen) for selection. The cells were cultured for approximately 18 days with media exchange every 3 days until visible colonies were observed. After around 18 days, the colonies were trypsinized and transferred to another 10 cm dish for further characterization and experiments.
Stable Flp-In^TM-293 cell lines expressing GATAD1 variants were cultured using SILAC light (Lys0, Arg0) and SILAC heavy (Lys8, Arg10) media, as explained in the cell culture section. After full labeling, cells were split into 15 cm dishes and were treated with 1 μg/mL tetracycline for 24 h to induce the expression of GATAD1. After the induction period, cells were incubated with 50 μM biotin overnight for proximity biotinylation. As a control, wild-type GATAD1 cells, without biotin or tetracycline addition, were used. Samples were multiplexed, as shown in Supplementary Fig. 41A with both forward and reverse label swap (n = 2). Cells were then lysed in lysis buffer (50 mM Tris-HCl pH 7.5, 150 mM NaCl, 1% Triton X-100, 1 mM EDTA, 1 mM EGTA, 0.1% SDS) with freshly added protease inhibitors and 1% sodium deoxycholate. To digest the excess DNA, 1 μl of Benzonase was added, and the samples were incubated for 20 min at 37 °C. Biotinylated proteins were enriched for 3 h at 4 °C using streptavidin-sepharose beads (GE Cat# 17-5113-01). Beads were pre-washed twice with 0.01% BSA and twice with lysis buffer. After enrichment, the beads were washed one time with lysis buffer, two times with washing buffer (50 mM HEPES-KOH pH 8.0, 100 mM KCl, 10% glycerol, 2 mM EDTA, 0.1% NP-40), and six times with 50 mM ammonium bicarbonate. Beads were resuspended in ammonium bicarbonate, and an on-bead protein digest with 1 μg of trypsin followed overnight. The next day, the digested proteins were transferred to a fresh tube and were incubated with 10 mM DTT for 30 min at 37 °C and with 55 mM iodoacetamide for 20 min at 37 °C in the dark. Samples were desalted with StageTips.
Peptides were separated using reversed-phase liquid chromatography (EASY nLC II 1200, Thermo Fisher Scientific) with self-made C18 microcolumns (20 cm long) packed with ReproSil-Pur C18-AQ 1.9 μm resin (Dr. Maisch, cat# r119.aq.0001). The chromatography system was coupled online to the electrospray ion source (Proxeon) of an Orbitrap Exploris 480 mass spectrometer (Thermo Fisher Scientific). The mobile phase consisted of buffer A (0.1% formic acid and 5% acetonitrile) and buffer B (0.1% formic acid and 80% acetonitrile). Peptides were eluted using a gradient with increasing concentrations of buffer B over 110 minutes, at a flow rate of 250 nl/min. Mass spectrometry data was acquired in data-dependent mode with settings for one full scan (resolution: 60,000; m/z range: 350–1600; normalized AGC target: 300%; maximum injection time: 10 ms), followed by top 20 MS/MS scans using higher-energy collisional dissociation (resolution: 15,000; m/z range: 200–2000; normalized AGC target: 100%; maximum injection time: 120 ms; isolation width: 1.3 m/z; normalized collision energy: 28%).
Raw files were analyzed with MaxQuant, version 2.0.3.0. […]

In a further test the target is T1, 14-3-3 epsilon (YWHAE) (Homo sapiens, UniProt P62258).
T1 construct: residues 1 and 236-255 are disordered and therefore not visible in the electron density; GST (N, cleaved yes); made in house; host or cells: Escherichia coli C41 (DE3)
T1 sequence (P62258 1-255): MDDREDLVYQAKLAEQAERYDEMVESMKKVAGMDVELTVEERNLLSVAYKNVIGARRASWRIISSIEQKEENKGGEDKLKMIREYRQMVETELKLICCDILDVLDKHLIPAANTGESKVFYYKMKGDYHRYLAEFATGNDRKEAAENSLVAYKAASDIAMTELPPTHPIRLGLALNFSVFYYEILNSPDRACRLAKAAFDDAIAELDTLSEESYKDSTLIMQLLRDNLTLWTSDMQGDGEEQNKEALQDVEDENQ
In words: Isothermal titration calorimetry (ITC) of GATAD1 peptides with 14-3-3ε. It counts as binding. The following applies: 18 °C, 400 µM peptide in syringe, 25 µM 14-3-3ε in chamber, 20 mM HEPES pH 7.0, 150 mM NaCl, 2 mM DTT. On the procedure: The 14-3-3ε (YWHAE) cDNA was purchased from Twist Bioscience in the pTwist Chlor High Copy vector and cloned into the pGEX6P1 plasmid (GE Healthcare) for recombinant expression as a GST-fusion protein followed by a Prescission protease cleavage site. The plasmid was freshly transformed into Escherichia coli C41 (DE3) cells. Cultures were grown in terrific broth supplemented with ampicillin (100 μg/ml) at 37 °C and 80 rpm until an optical density at 600 nm of 0.7 was reached. […] Cells were harvested by centrifugation at 4000 g and frozen at −20 °C.
Following resuspension in lysis buffer (50 mM HEPES/NaOH pH 7.5, 500 mM NaCl and 3 mM Dithiothreitol (DTT)) supplemented with 1 mg deoxyribonuclease I (DNaseI, Roche) and protease inhibitor 4-(2-Aminoethyl) benzenesulfonyl fluoride hydrochloride S7(AEBSF), cells were disrupted using a microfluidizer (Microfluidics). The cell extract was centrifuged at 55,000 g for 45 min at 4 °C to remove insoluble parts. The cleared supernatant was applied onto a prepacked Glutathione Sepharose 4B column (Cytiva) equilibrated in the lysis buffer. The column was extensively washed with lysis buffer. To cleave off the GST tag, 1 mg PreScission protease was diluted in 5 ml OCC buffer (50 mM HEPES/NaOH pH 7.5, 150 mM NaCl, and 3 mM DTT), applied to the column material, and incubated overnight at 4 °C. Cleaved 14-3-3ε protein was eluted from the column using OCC buffer, concentrated and loaded onto an 16/60 S200 column (Cytiva) equilibrated in SEC buffer (20 mM HEPES/NaOH pH 7.5, 150 mM NaCl and 2 mM DTT). Pure and homogenous 14-3-3ε was concentrated to 13 mg/ml, flash-frozen in liquid nitrogen, and stored at −80 °C until further use.
GATAD1 peptides used in these experiments were obtained from JPT peptide technologies with an N-terminus in amine and a C-terminus in amide form with 95% purity. ITC experiments were performed using a PEAQ-ITC microcalorimeter (Malvern). All titrations were performed at 18 °C with 400 µM peptide in the syringe and 25 µM 14-3-3ε in the reaction chamber. The protein and the titration components were dissolved in a buffer containing 20 mM HEPES pH 7.0, 150 mM NaCl, and 2 mM DTT. Malvern software was used for data visualization and fitting. The raw ITC results can be found in Supplementary Fig. 42.
Background: In ITC the heat of successive injections is recorded.

Entries after “also recorded” stand apart in the source; their conditions may differ.

Consider BCLAF1, for which, in test [1], the Log2_Ratio.H.L.normalized.WT_S102P_forward came to 1.402, the Ratio.H.L.normalized.WT_S102P_forward is listed as 0.3784, the Log2_Ratio.H.L.normalized.WT_S102P_reverse came to 1.045 and the Ratio.H.L.normalized.WT_S102P_reverse amounted to 2.064.

As to ZC3H4, in test [1], the Log2_Ratio.H.L.normalized.WT_S102P_forward was determined as 1.304, the Ratio.H.L.normalized.WT_S102P_forward stood at 0.405, the Log2_Ratio.H.L.normalized.WT_S102P_reverse amounted to 1.071 and the Ratio.H.L.normalized.WT_S102P_reverse amounted to 2.1009.

On to RBBP6, for which, in test [1], the Log2_Ratio.H.L.normalized.WT_S102P_forward was 1.156, the Ratio.H.L.normalized.WT_S102P_forward came out at 0.4486, the Log2_Ratio.H.L.normalized.WT_S102P_reverse amounted to 1.0059 and the Ratio.H.L.normalized.WT_S102P_reverse is given as 2.0082.

Turning to BOD1L1, in test [1], the Log2_Ratio.H.L.normalized.WT_S102P_forward is 1.279, the Ratio.H.L.normalized.WT_S102P_forward is on record as 0.4121, the Log2_Ratio.H.L.normalized.WT_S102P_reverse was found to be 1.335 and the Ratio.H.L.normalized.WT_S102P_reverse was determined as 2.5226.

Take HDGFRP2: in test [1], the Log2_Ratio.H.L.normalized.WT_S102P_forward was found to be 1.523, the Ratio.H.L.normalized.WT_S102P_forward amounted to 0.348, the Log2_Ratio.H.L.normalized.WT_S102P_reverse is reported as 1.484 and the Ratio.H.L.normalized.WT_S102P_reverse is listed as 2.7966.

On to TPR, for which, in test [1], the Log2_Ratio.H.L.normalized.WT_S102P_forward is reported as 1.211, the Ratio.H.L.normalized.WT_S102P_forward was 0.4319, the Log2_Ratio.H.L.normalized.WT_S102P_reverse is recorded as 1.117 and the Ratio.H.L.normalized.WT_S102P_reverse is listed as 2.169.

For the substance ZNF318, in test [1], the Log2_Ratio.H.L.normalized.WT_S102P_forward was determined as 1.385, the Ratio.H.L.normalized.WT_S102P_forward came to 0.3829, the Log2_Ratio.H.L.normalized.WT_S102P_reverse was 1.241 and the Ratio.H.L.normalized.WT_S102P_reverse turned out to be 2.3636.

“LRNTKYKPAPAAEKK [GATAD1_Ser102Pro, GATAD1 15-mer with the disease-linked S102P mutation]”: on 14-3-3 epsilon (YWHAE), the “Interaction with 14-3-3ε by ITC (in words)” value (“Interaction with 14-3-3ε” below) was “Neither the non-phosphorylated wild-type peptide nor the peptide with the disease-linked S102P mutation showed detectable binding; also recorded: do not interact”.

For PCF11, in test [1], the Log2_Ratio.H.L.normalized.WT_S102P_forward is recorded as 1.509, the Ratio.H.L.normalized.WT_S102P_forward came to 0.3515, the Log2_Ratio.H.L.normalized.WT_S102P_reverse turned out to be 1.2027 and the Ratio.H.L.normalized.WT_S102P_reverse is 2.3017.

On to “PSPGRQNSKAPKLTL [NCOA6, wild-type non-phosphorylated 15-mer]”, for which, in test [1], the Log2_Ratio.H.L.normalized.WT_S102P_forward is recorded as 1.334, the Ratio.H.L.normalized.WT_S102P_forward was found to be 0.3966, the Log2_Ratio.H.L.normalized.WT_S102P_reverse is given as 1.3003 and the Ratio.H.L.normalized.WT_S102P_reverse is recorded as 2.4628.

As to NPM1, in test [1], the Log2_Ratio.H.L.normalized.WT_S102P_forward came out at 1.325, the Ratio.H.L.normalized.WT_S102P_forward was determined as 0.3991, the Log2_Ratio.H.L.normalized.WT_S102P_reverse turned out to be 1.034 and the Ratio.H.L.normalized.WT_S102P_reverse was 2.0483.

With MGA, in test [1], the Log2_Ratio.H.L.normalized.WT_S102P_forward was 1.435, the Ratio.H.L.normalized.WT_S102P_forward is 0.3699, the Log2_Ratio.H.L.normalized.WT_S102P_reverse was found to be 1.064 and the Ratio.H.L.normalized.WT_S102P_reverse was found to be 2.0912.

In the case of NCOR1, in test [1], the Log2_Ratio.H.L.normalized.WT_S102P_forward is listed as 1.327, the Ratio.H.L.normalized.WT_S102P_forward is 0.3987, the Log2_Ratio.H.L.normalized.WT_S102P_reverse amounted to 1.25 and the Ratio.H.L.normalized.WT_S102P_reverse is 2.3792.

Turning to MED1, in test [1], the Log2_Ratio.H.L.normalized.WT_S102P_forward turned out to be 1.28, the Ratio.H.L.normalized.WT_S102P_forward is reported as 0.4118, the Log2_Ratio.H.L.normalized.WT_S102P_reverse is given as 1.018 and the Ratio.H.L.normalized.WT_S102P_reverse turned out to be 2.0257.

Turning to PSME3, in test [1], the Log2_Ratio.H.L.normalized.WT_S102P_forward was 1.443, the Ratio.H.L.normalized.WT_S102P_forward was determined as 0.3677, the Log2_Ratio.H.L.normalized.WT_S102P_reverse turned out to be 1.216 and the Ratio.H.L.normalized.WT_S102P_reverse is given as 2.3229.

For “LRNTKYKSAPAAEKK [GATAD1, wild-type non-phosphorylated GATAD1 15-mer; ITC form with C-terminus in amide form]”, the “Interaction with 14-3-3ε” value was “do not interact” on 14-3-3 epsilon (YWHAE) and “Neither the non-phosphorylated wild-type peptide nor the peptide with the disease-linked S102P mutation showed detectable binding” at 14-3-3 epsilon (YWHAE) (listed as non-phosphorylated wild-type peptide).

Consider “LRNTKYKEAPAAEKK [S102E, phosphomimetic S102E mutant GATAD1 peptide]”, for which, on 14-3-3 epsilon (YWHAE), the “Interaction with 14-3-3ε” value was “do not interact”.
